In paper PMC8284453 (Antimicrobial Agents and Chemotherapy, 2021):
≈ marks a conversion by molar mass, not a printed value. Like-named read-outs stand apart in the source and are kept apart here.

Tests used:
[1] = test system: Enterobacterales expressing class C cephalosporinases
[2] = test system: Enterobacterales expressing class D oxacillinases (OXA-48/48-like); experiment: organism not typed; format: cell-based, E. coli, K. pneumoniae; conditions: for MIC50 / MIC90: 25 isolates, BLI fixed at 4 μg/ml, AMC 2:1
[3] = test system: E. cloacae ECL01 (TEM-72, ACT-1, P99AmpC); experiment: Broth microdilution MIC; format: cell-based; conditions: modal value, 5 independent determinations
[4] = test system: K. pneumoniae 752286 (OXA-48); experiment: Broth microdilution MIC; format: cell-based; conditions: modal value, 5 independent determinations

For C[C@@H](O)[C@H]1C(=O)N2C(C(=O)O)=C(S[C@H]3CC[S@@+]([O-])C3)S[C@H]12 [Sulopenem], the MIC90 ([1]; 25 isolates, BLI fixed at 4 μg/ml, AMC 2:1) was 2 µg/mL (≈ 5.72 µM), the MIC ([1]; C. freundii 134390 (AmpC, TEM-1)) was 0.06 µg/mL (≈ 0.172 µM) and the MIC ([1]; E. aerogenes 110099 (AmpC, SHV-12)) was 0.06 µg/mL (≈ 0.172 µM). The MIC ([1]; E. aerogenes 111707 (AmpC, TEM-1)) was 0.12 µg/mL (≈ 0.343 µM), the MIC ([1]; E. aerogenes 111902 (AmpC, TEM-1)) was 0.25 µg/mL (≈ 0.715 µM) and the MIC ([1]; E. coli 128 (AmpC, SHV-12, TEM-1, Toho-2)) was 0.03 µg/mL (≈ 0.0858 µM). It also gave an MIC ([1]; E. coli 3102 (AmpC, CTX-M-15, TEM-1)) of 0.03 µg/mL (≈ 0.0858 µM), an MIC ([1]; E. coli CH1 (AmpC, CTX-M-15, SHV-1, SHV-5, TEM-1)) of 0.06 µg/mL (≈ 0.172 µM) and an MIC ([1]; E. coli EC469 (AmpC, SHV-12, TEM-1)) of 0.03 µg/mL (≈ 0.0858 µM). It also gave an MIC ([1]; E. coli J53 (AmpC, SHV-5, TEM-1)) of 0.06 µg/mL (≈ 0.172 µM), an MIC ([1]; E. coli SI-P026TC (CMY-2, TEM-1)) of 0.25 µg/mL (≈ 0.715 µM) and an MIC ([1]; E. coli SI-PO26 (AmpC, CMY-2, TEM-1)) of 0.12 µg/mL (≈ 0.343 µM). The MIC ([1]; K. pneumoniae 129032 (MOX-2, SHV-12, TEM-1)) was 0.06 µg/mL (≈ 0.172 µM), the MIC ([1]; K. pneumoniae 178279 (AmpC, SHV-12, TEM-1)) was 0.06 µg/mL (≈ 0.172 µM) and the MIC ([1]; K. pneumoniae 212027 (AmpC, FOX-5, TEM-1)) was 0.03 µg/mL (≈ 0.0858 µM). It also gave an MIC ([1]; K. pneumoniae 217917 (CMY-2, TEM-1)) of 0.06 µg/mL (≈ 0.172 µM), an MIC ([1]; K. pneumoniae 301313 (AmpC, SHV-12, TEM-1)) of 0.12 µg/mL (≈ 0.343 µM) and an MIC ([1]; K. pneumoniae 398845 (CMY-2, SHV-12, TEM-1)) of 0.06 µg/mL (≈ 0.172 µM). It also gave an MIC ([1]; K. pneumoniae SI-F100 (CMY-2, SHV-5, TEM-1)) of 0.03 µg/mL (≈ 0.0858 µM), an MIC ([1]; P. mirabilis SI-F014 (AmpC, TEM-72)) of 1 µg/mL (≈ 2.86 µM) and an MIC ([1]; S. marcescens 132253 (AmpC, CTX-M-3, OXA-1, SHV-12, TEM-1)) of 2 µg/mL (≈ 5.72 µM). For the same molecule, the MIC ([1]; S. marcescens 134434 (AmpC, SHV-12, TEM-1)) was 8 µg/mL (≈ 22.9 µM), the MIC ([1]; S. marcescens 142397 (AmpC, SHV-7, TEM-1)) was 2 µg/mL (≈ 5.72 µM) and the MIC ([1]; S. marcescens 156212 (AmpC, SHV-12, TEM-1)) was 1 µg/mL (≈ 2.86 µM). It also gave an MIC ([1]; S. marcescens 192478 (AmpC, SHV-12, TEM-1)) of 0.25 µg/mL (≈ 0.715 µM), an MIC ([1]; S. marcescens 218068 (AmpC, SHV-7, TEM-1)) of 4 µg/mL (≈ 11.4 µM) and an MIC50 [2] of 8 µg/mL (≈ 22.9 µM). For the same molecule, the MIC90 [2] was 16 µg/mL (≈ 45.8 µM), the MIC50 ([2]; listed as sulopenem) was 4 to 8 µg/mL and the MIC90 ([2]; listed as sulopenem) was 16 to 32 µg/mL. The MIC ([2]; E. coli 664507 (OXA-48)) was 8 µg/mL (≈ 22.9 µM), the MIC ([2]; E. coli 664516 (OXA-48)) was 16 µg/mL (≈ 45.8 µM) and the MIC ([2]; E. coli 664520 (OXA-48)) was 8 µg/mL (≈ 22.9 µM). For the same molecule, the MIC ([2]; E. coli 664522 (OXA-48)) was 16 µg/mL (≈ 45.8 µM), the MIC ([2]; E. coli 664523 (OXA-48)) was 4 µg/mL (≈ 11.4 µM) and the MIC ([2]; E. coli 664524 (OXA-48)) was 8 µg/mL (≈ 22.9 µM). The MIC ([2]; E. coli 664525 (OXA-48)) was 16 µg/mL (≈ 45.8 µM), the MIC ([2]; E. coli 664526 (OXA-48)) was 8 µg/mL (≈ 22.9 µM) and the MIC ([2]; E. coli 664528 (OXA-48)) was 8 µg/mL (≈ 22.9 µM). For the same molecule, the MIC ([2]; E. coli 787112 (OXA-48)) was 16 µg/mL (≈ 45.8 µM), the MIC ([2]; E. coli SI-422 (OXA-48)) was 4 µg/mL (≈ 11.4 µM) and the MIC ([2]; E. coli VER (OXA-48)) was 4 µg/mL (≈ 11.4 µM). The MIC ([2]; K. pneumoniae 6299 (OXA-163)) was 1 µg/mL (≈ 2.86 µM), the MIC ([2]; K. pneumoniae 515746 (OXA-48), first line) was 2 µg/mL (≈ 5.72 µM) and the MIC ([2]; K. pneumoniae 515746 (OXA-48), second line) was 4 µg/mL (≈ 11.4 µM). For the same molecule, the MIC ([2]; K. pneumoniae 664438 (OXA-48)) was 8 µg/mL (≈ 22.9 µM), the MIC ([2]; K. pneumoniae 664439 (OXA-48)) was 8 µg/mL (≈ 22.9 µM) and the MIC ([2]; K. pneumoniae 664509 (OXA-48)) was no less than 64 µg/mL. For the same molecule, the MIC ([2]; K. pneumoniae 664518 (OXA-48)) was 8 µg/mL (≈ 22.9 µM), the MIC ([2]; K. pneumoniae 722870 (OXA-48)) was 8 µg/mL (≈ 22.9 µM) and the MIC ([2]; K. pneumoniae BAH (OXA-204)) was 4 µg/mL (≈ 11.4 µM). The MIC ([2]; K. pneumoniae DEL (OXA-232)) was 32 µg/mL (≈ 91.6 µM), the MIC ([2]; K. pneumoniae DOV (OXA-48)) was 2 µg/mL (≈ 5.72 µM) and the MIC ([2]; K. pneumoniae KIRK (OXA-162)) was 4 µg/mL (≈ 11.4 µM). The MIC ([2]; K. pneumoniae SI-C17 (OXA-48)) was 16 µg/mL (≈ 45.8 µM), the MIC [3] was 1 µg/mL (≈ 2.86 µM) and the MIC [4] was 16 µg/mL (≈ 45.8 µM).
